Measurements: patent US20200123555A1, “USE OF MALONYLTRANSFERASE GENE” (Suntory Holdings Limited, priority 2017, published 2020)
Blank lines part the entries; values can stand above or below the molecule they belong to.

Assays:
[1] = test system: Dm3MaT3; assay: Enzyme activity, His-tag purified Dm3MaT3 protein solution; type: biochemical, chrysanthemum; details: 10 μg Dm3MaT3 protein, 5 μl of 500 μg/ml substrate, malonyl-CoA, 20 minutes at 30° C., pH 7.0
Protocol: The Escherichia coli strain BL21 introduced with pET32a-Dm3MaT3 described in Example 1 was cultured using the Overnight Express Autoinduction System 1 (Novagen) in accordance with the protocol recommended by the manufacturer. The transformed Escherichia coli was cultured at 37° C. in 8 ml of prepared culture broth until the OD600 value reached 0.5 (approximately 4 hours). This Escherichia coli broth was used as pre-culture broth and added to 200 ml of culture broth followed by culturing overnight at 25° C.
After culturing overnight, the Escherichia coli broth was centrifuged (1000×g, 4° C., 10 minutes) and the harvested bacterial cells were suspended in 20 ml of extraction buffer (composition: 300 mM KCl, 50 mM KH2PO4, 5 mM imidazole (pH 8.0), 10 μM amidinophenylmethanesulfonyl fluoride hydrochloride (APMSF)) followed by disrupting the Escherichia coli by ultrasonication, centrifuging (1400×g, 4° C., 20 minutes) and recovering the supernatant. The supernatant was passed through a 0.45 μm and subjected to His-Tagged purification using Profinia (Bio-Rad) in accordance with the protocol recommended by the manufacturer. The resulting purified protein solution was centrifuged (7500×g, 4° C., 15 minutes) using Centrifugal Filters (Ultracel-10K, Amicon Ultra) and the concentrated protein solution was used as “Dm3MaT3 protein solution”. The Avanti HP-26XP (rotor: JA-2) (Beckman Coulter) was used for centrifugation.
A reaction solution, obtained by mixing 30 μl of Dm3MaT3 protein solution (10 μg), 5 μl of 1 mg/ml malonyl-CoA, 5 μl of 1 M KPB (pH 7.0), 5 μl of 500 μg/ml luteolin 7-glucoside (dissolved in a 50% aqueous acetonitrile solution containing 0.1% TFA) and adjusting to a volume of 100 μl with water on ice, was held for 20 minutes at 30° C. Subsequently, 100 μl of stop buffer (90% aqueous acetonitrile solution containing 0.1% TFA) were added to stop the reaction followed by analyzing the reaction solution by high-performance liquid chromatography (Prominence, Shimadzu Corp.). Flavone was detected at 330 nm using the Shimadzu PDA SPD-M20A for the detector. […]

[2] = test system: Dm3MaT3; assay: Malonyl transfer activity of flower petal crude enzyme solution from genetically engineered rose introduced with Dm3MaT3 gene; type: biochemical; details: 2.5 μl of 1 mM apigenin, malonyl-CoA, 20 minutes at 30° C.; genetically engineered rose petals
Source text: In order to confirm that the Dm3MaT3 gene of the present invention encodes a protein having activity that transfers a malonyl group to position 6 of the glucose at position 7 of flavone 7-glucoside in plants, a binary vector pSPB7136 was constructed to express Dm3MaT3 in plants (see FIG. 8) and subsequently introduced into a rose (variety: Ocean Song). pBINPLUS (Van Engel et al., Transgenic Research 4, 288) was used for the basic skeleton, E1235S promoter (Mitsuhara et al., (1996) Plant Cell Physiol., 37, p. 49) was used for the promoter expressing Dm3MaT3 gene, and HSP terminator (Plant Cell Physiol. (2010) 51, 328-332) was used for the terminator in pSPB7136.
A crude enzyme solution was prepared from the petals of a rose strain in which was synthesized the transcription product of full-length cDNA Dm3MaT3 followed by an evaluation of the presence or absence of activity transferring a malonyl group to position 6 of the glucose at position 7 of flavone 7-glucoside. […]
A reaction solution, obtained by mixing 20 μl of the flower petal crude enzyme solution, 5 μl of 1 mg/ml malonyl-CoA, 5 μl of 1 M KPB (pH 7.0) and 2.5 μl of 1 mM apigenin (dissolved in 50% aqueous acetonitrile solution containing 0.1% TFA) and adjusting to a volume of 100 μl with water on ice, was held for 20 minutes at 30° C. […] Flavone was detected at 330 nm using the Shimadzu PDA SPD-M20A for the detector. […]

[3] = test system: Dm3MaT3; assay: Enzyme activity, protein solution crudely extracted from Escherichia coli expressing Dm3MaT3; type: biochemical, chrysanthemum; details: substrate with malonyl-CoA
Protocol: The Shim-Pack ODS 150 mm×4.6 mm column (Shimadzu Corp.) was used for the column. […] The flow rate was 0.6 ml/min.

[4] = test system: Dm3MaT1; assay: Enzyme activity, protein solution crudely extracted from Escherichia coli expressing Dm3MaT1; type: biochemical, chrysanthemum; details: substrate with malonyl-CoA, 20 minutes at 30° C., pH 7.0, detection 330 nm
[5] = test system: Dm3MaT2; assay: Enzyme activity, protein solution crudely extracted from Escherichia coli expressing Dm3MaT2; type: biochemical, chrysanthemum; details: substrate with malonyl-CoA, 20 minutes at 30° C., pH 7.0, detection 330 nm

reaction rate (percentage of substrate converted) [1]: 85.80%
SMILES: O=c1cc(-c2ccc(O)cc2)oc2cc(O[C@@H]3O[C@H](CO)[C@@H](O)[C@H](O)[C@H]3O)cc(O)c12 [apigenin 7-glucoside]

peak corresponding to 7-malonylglucoside, share of the apigenin compounds in the enzyme reaction solution [2]: 2.04%
SMILES: O=c1cc(-c2ccc(O)cc2)oc2cc(O)cc(O)c12 [apigenin]

SMILES: OC[C@H]1O[C@@H](Oc2cc3c(O)cc(O)cc3[o+]c2-c2ccc(O)c(O)c2)[C@H](O)[C@@H](O)[C@@H]1O [cyanidin 3-glucoside]
amount of cyanidin 3-glucoside consumed in comparison with Dm3MaT1 ([3]; detection 520 nm): clearly less
peak corresponding to cyanidin 3-malonylglucoside (HPLC) ([3]; detection 520 nm): detected

reaction rate (percentage of substrate converted) [1]: 34.81%
SMILES: O=c1cc(-c2ccc(O[C@@H]3O[C@H](CO)[C@@H](O)[C@H](O)[C@H]3O)c(O)c2)oc2cc(O)cc(O)c12 [luteolin 4′-glucoside]

SMILES: O=c1cc(-c2ccc(O)c(O)c2)oc2cc(O[C@@H]3O[C@H](CO)[C@@H](O)[C@H](O)[C@H]3O)cc(O)c12 [luteolin 7-glucoside]
peak corresponding to luteolin 7-malonylglucoside (HPLC) ([3]; 20 minutes at 30° C., pH 7.0, detection 330 nm): detected
peak corresponding to luteolin 7-malonylglucoside (HPLC) [4]: not detected
peak corresponding to luteolin 7-malonylglucoside (HPLC) [5]: not detected
reaction rate (percentage of substrate converted) [1]: 81.13%
